Data from ChEMBL document CHEMBL1765032, “β-Branched acyclic nucleoside analogues as inhibitors of Plasmodium falciparum dUTPase” (Bioorg Med Chem, 2011).

Experiments:
L6 = test: Cytotoxicity against rat L6 cells after 72 hrs by alamar blue assay; type: cell-based; settings: L6, 72 h
Plasmodium falciparum = test: microbe, parasite or virus in culture; settings: K1
[1] = biological target: T1, Deoxyuridine 5'-triphosphate nucleotidohydrolase, mitochondrial (Homo sapiens, UniProt P33316); test: Inhibition of human dUTPase by spectrophotometric analysis
T1 sequence (P33316 whole entry): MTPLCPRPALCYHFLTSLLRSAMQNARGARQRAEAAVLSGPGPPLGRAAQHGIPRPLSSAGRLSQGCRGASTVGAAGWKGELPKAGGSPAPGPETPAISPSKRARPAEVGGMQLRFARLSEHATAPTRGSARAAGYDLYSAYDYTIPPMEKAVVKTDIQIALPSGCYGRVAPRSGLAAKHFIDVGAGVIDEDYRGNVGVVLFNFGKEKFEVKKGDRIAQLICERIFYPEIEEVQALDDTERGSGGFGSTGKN

[2] = Inhibition of Plasmodium falciparum dUTPase by spectrophotometric analysis
[3] = Selectivity index, ratio of EC50 for rat L6 cells to EC50 for chloroquine-resistant erythrocytic stage of Plasmodium falciparum K1; type: toxicity, cell-based; settings: read-out: Ratio EC50

Ki [1] [µM]	Structure (SMILES)	EC50 (L6) [µM]	EC50 (Plasmodium falciparum) [µM]	Ki [2] [µM]	selectivity ratio [3]
–	O=c1ccn(CCCCOC(c2ccccc2)(c2ccccc2)c2ccccc2)c(=O)[nH]1	42	4.9	–	–
–	O=c1ccn([C@H]2C[C@H](O)[C@@H](CNC(c3ccccc3)(c3ccccc3)c3ccccc3)O2)c(=O)[nH]1	44	4.5	–	–
–	O=c1ccn([C@H]2C[C@H](O)[C@@H](COC(c3ccccc3)(c3ccccc3)c3ccccc3)O2)c(=O)[nH]1	192	6	–	–
> 100	NC(=O)C(CCOC(c1ccccc1)(c1ccccc1)c1ccccc1)Cn1ccc(=O)[nH]c1=O (racemic)	–	–	1.3	–
> 100	CN(C)C(=O)C(CCOC(c1ccccc1)(c1ccccc1)c1ccccc1)Cn1ccc(=O)[nH]c1=O (racemic)	–	–	2.7	–
> 100	CC(C)(C)[Si](OCCNC(=O)C(CCOC(c1ccccc1)(c1ccccc1)c1ccccc1)Cn1ccc(=O)[nH]c1=O)(c1ccccc1)c1ccccc1 (racemic)	–	–	> 10	–
> 100	CCOC(=O)CCNC(=O)C(CCOC(c1ccccc1)(c1ccccc1)c1ccccc1)Cn1ccc(=O)[nH]c1=O (racemic)	–	–	0.5	–
> 100	CN(C)CCNC(=O)C(CCOC(c1ccccc1)(c1ccccc1)c1ccccc1)Cn1ccc(=O)[nH]c1=O (racemic)	–	–	7.8	–
> 100	O=C(C(CCOC(c1ccccc1)(c1ccccc1)c1ccccc1)Cn1ccc(=O)[nH]c1=O)N1CCOCC1 (racemic)	–	–	2.1	–
> 100	COCCNC(=O)C(CCOC(c1ccccc1)(c1ccccc1)c1ccccc1)Cn1ccc(=O)[nH]c1=O (racemic)	–	–	1.4	–
> 100	CN1CCN(C(=O)C(CCOC(c2ccccc2)(c2ccccc2)c2ccccc2)Cn2ccc(=O)[nH]c2=O)CC1 (racemic)	–	–	5.6	–
> 100	O=C(NCCO)C(CCOC(c1ccccc1)(c1ccccc1)c1ccccc1)Cn1ccc(=O)[nH]c1=O (racemic)	–	–	–	–
> 100	O=C(O)CCNC(=O)C(CCOC(c1ccccc1)(c1ccccc1)c1ccccc1)Cn1ccc(=O)[nH]c1=O (racemic)	–	–	0.2	–
> 100	CC(C)(C)[Si](OCCC(Cn1ccc(=O)[nH]c1=O)C(=O)O)(c1ccccc1)c1ccccc1 (racemic)	–	–	1.6	–
> 100	CC(C)(C)[Si](OCCC(Cn1ccc(=O)[nH]c1=O)C(N)=O)(c1ccccc1)c1ccccc1 (racemic)	–	–	5	–
> 100	CNC(=O)C(CCO[Si](c1ccccc1)(c1ccccc1)C(C)(C)C)Cn1ccc(=O)[nH]c1=O (racemic)	–	–	3.6	–
> 100	CCNC(=O)C(CCO[Si](c1ccccc1)(c1ccccc1)C(C)(C)C)Cn1ccc(=O)[nH]c1=O (racemic)	–	–	5.7	–
> 100	CCN(CC)C(=O)C(CCO[Si](c1ccccc1)(c1ccccc1)C(C)(C)C)Cn1ccc(=O)[nH]c1=O (racemic)	–	–	20	–
> 100	CC(C)(C)[Si](OCCC(Cn1ccc(=O)[nH]c1=O)C(=O)N1CCN(C(=O)OCc2ccccc2)CC1)(c1ccccc1)c1ccccc1 (racemic)	–	–	98	–
> 100	O=C(OCc1ccccc1)OCC(CCNC(c1ccccc1)(c1ccccc1)c1ccccc1)Cn1ccc(=O)[nH]c1=O (racemic)	–	–	6.5	–
–	O=c1ccn(CC(CO)CCOC(c2ccccc2)(c2ccccc2)c2ccccc2)c(=O)[nH]1 (racemic)	33	1.2	–	–
–	COc1cc([C@@H]2c3cc4c(cc3[C@H](O)[C@H]3COC(=O)[C@H]23)OCO4)cc(OC)c1OC [PODOFILOX]	–	0.012	–	–

Structure (SMILES)	Ki [1] [µM]	EC50 (L6) [µM]	EC50 (Plasmodium falciparum) [µM]	Ki [2] [µM]	selectivity ratio [3]
O=C(O)C(CCNC(c1ccccc1)(c1ccccc1)c1ccccc1)Cn1ccc(=O)[nH]c1=O (racemic)	90	51	1.3	7.2	39
NC(=O)C(CCNC(c1ccccc1)(c1ccccc1)c1ccccc1)Cn1ccc(=O)[nH]c1=O (racemic)	98	177	1.1	5.5	161
